The values below come from patent US11395847B2, “Acylated GLP-1/GLP-2 dual agonists” (Zealand Pharma A/S, priority 2016, dated 2022).

Where a SMILES comes first, the peptide text is derived from it. [ ]: non-standard residue; d: D form. The star is where a group is joined. Stearoyl = CCCCCCCCCCCCCCCCCC(=O)*; Aib = CC(C)(N)C(=O)O

T1 sequence (P43220 24-463): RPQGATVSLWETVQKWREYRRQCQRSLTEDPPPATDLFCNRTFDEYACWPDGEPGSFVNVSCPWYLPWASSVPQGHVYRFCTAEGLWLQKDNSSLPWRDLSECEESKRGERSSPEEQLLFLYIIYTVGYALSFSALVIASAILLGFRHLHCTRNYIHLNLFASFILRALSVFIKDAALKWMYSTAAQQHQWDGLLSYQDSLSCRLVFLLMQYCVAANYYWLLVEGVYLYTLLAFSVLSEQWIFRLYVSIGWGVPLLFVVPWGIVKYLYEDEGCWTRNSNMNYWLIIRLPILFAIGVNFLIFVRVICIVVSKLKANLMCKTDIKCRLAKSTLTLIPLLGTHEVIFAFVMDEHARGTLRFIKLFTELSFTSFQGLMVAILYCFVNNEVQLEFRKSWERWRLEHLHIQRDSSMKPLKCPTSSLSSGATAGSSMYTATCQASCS

The assay has as its target T1, human GLP-1 receptor (Homo sapiens, UniProt P43220).
T1 construct: expressed in transfected cells
In words: GLP-1 receptor potency assay (cAMP ALPHASCREEN, HEK293 cells stably expressing GLP-1 R). The class given is cell-based. The note with it: cAMP response, HEK293 cells expressing human GLP-1 R. The source says:
One useful in vitro assay for measuring GLP-1 and GLP-2 receptor activity is quantitation of cAMP, i.e. 3′-5′-cyclic adenosine monophosphate, which is a second messenger essential in many biological processes, and one of the most ubiquitous mechanisms for regulating cellular functions.
The cDNA encoding the human glucagon-like peptide 1 receptor (GLP-1 R) (primary accession number P43220) was cloned from the cDNA BC112126 (MGC:138331/IMAGE:8327594). The DNA encoding the GLP-1-R was amplified by PCR using primers encoding terminal restriction sites for subcloning. The 5′-end primers additionally encoded a near Kozak consensus sequence to ensure efficient translation. […] The PCR products encoding the GLP-1-R were subcloned into a mammalian expression vector containing a neomycin (G418) resistance marker. The mammalian expression vectors encoding the GLP-1-R were transfected into HEK293 cells by a standard calcium phosphate transfection method. 48 hours post-transfection, cells were seeded for limited dilution cloning and selected with 1 mg/ml G418 in the culture medium. Following 3 weeks in G418 selection clones were picked and tested in a functional GLP-1 receptor potency assay as described below.
The cAMP ALPHASCREEN® assay from Perkin Elmer was used to quantitate the cAMP response to activation of the GLP1 and GLP2 receptor, respectively. […] Data from test compounds eliciting an increase in the intracellular level of cAMP were normalized relative to the positive and negative control (vehicle) to calculate the EC50 and maximal response from the concentration response curve.
A general note: Alpha assays give light when donor and acceptor beads are brought close together.
Regarding `CC[C@H](C)[C@H](NC(=O)[C@H](CC(C)C)NC(=O)[C@H](Cc1c[nH]c2ccccc12)NC(=O)[C@H](C)NC(=O)[C@@H](NC(=O)[C@H](Cc1ccccc1)NC(=O)[C@H](CC(=O)O)NC(=O)[C@H](CCCNC(=N)N)NC(=O)[C@H](C)NC(=O)[C@H](C)NC(=O)[C@H](CCC(N)=O)NC(=O)[C@H](CCCCNC(=O)CC[C@H](NC(=O)CCCCCCCCCCCCCCCCC(=O)O)C(=O)O)NC(=O)[C@H](CC(=O)O)NC(=O)[C@H](CC(C)C)NC(=O)[C@@H](NC(=O)[C@@H](NC(=O)[C@H](C)NC(=O)[C@H](CC(C)C)NC(=O)[C@H](CCC(=O)O)NC(=O)[C@H](CO)NC(=O)[C@H](CO)NC(=O)[C@H](Cc1ccccc1)NC(=O)[C@@H](NC(=O)CNC(=O)[C@H](CCC(=O)O)NC(=O)C(C)(C)NC(=O)[C@@H](N)Cc1c[nH]cn1)[C@@H](C)O)[C@@H](C)O)[C@@H](C)CC)[C@@H](C)CC)C(=O)N[C@@H](C)C(=O)N[C@@H](Cc1c[nH]cn1)C(=O)N[C@@H](CCCCN)C(=O)N[C@H](C(=O)N[C@H](C(=O)N[C@@H](CC(=O)O)C(=O)O)[C@@H](C)O)[C@@H](C)CC` [Compound 21] (HELM PEPTIDE1{H.[Aib].E.G.T.F.S.S.E.L.A.T.I.L.D.K.Q.A.A.R.D.F.I.A.W.L.I.A.H.K.I.T.D}|PEPTIDE2{[O=C(O)CCCCCCCCCCCCCCCCC(=O)[*:2]].[gGlu]}$PEPTIDE1,PEPTIDE2,16:R3-2:R2$$$V2.0), the EC50 came out at 1.8 nM.
Take `CCCCCCCCCCCCCCCCCC(=O)NCCCC[C@H](NC(=O)[C@H](CC(=O)O)NC(=O)[C@H](CC(C)C)NC(=O)[C@@H](NC(=O)[C@@H](NC(=O)[C@H](C)NC(=O)[C@H](CC(C)C)NC(=O)[C@H](CCC(=O)O)NC(=O)[C@H](CO)NC(=O)[C@@H](NC(=O)[C@H](Cc1ccccc1)NC(=O)[C@H](CO)NC(=O)CNC(=O)[C@H](CCC(=O)O)NC(=O)C(C)(C)NC(=O)[C@@H](N)Cc1c[nH]cn1)[C@@H](C)O)[C@@H](C)O)[C@@H](C)CC)C(=O)N[C@@H](CCC(N)=O)C(=O)N[C@@H](C)C(=O)N[C@@H](C)C(=O)N[C@@H](CCCNC(=N)N)C(=O)N[C@@H](CC(=O)O)C(=O)N[C@@H](Cc1ccccc1)C(=O)N[C@H](C(=O)N[C@@H](C)C(=O)N[C@@H](Cc1c[nH]c2ccccc12)C(=O)N[C@@H](CC(C)C)C(=O)N[C@H](C(=O)N[C@@H](CCC(N)=O)C(=O)N[C@@H](Cc1ccc(O)cc1)C(=O)N[C@@H](CCCCN)C(=O)N[C@H](C(=O)N[C@H](C(=O)N[C@@H](CC(=O)O)C(=O)O)[C@@H](C)O)[C@@H](C)CC)[C@@H](C)CC)[C@@H](C)CC` [Compound 36] (H-H[Aib]EGSFTSELATILDK(Stearoyl)QAARDFIAWLIQYKITD-OH): it took 0.32 nM to reach a half-maximal effect (EC50).
Next, `CC[C@H](C)[C@H](NC(=O)[C@H](CC(C)C)NC(=O)[C@H](Cc1c[nH]c2ccccc12)NC(=O)[C@H](C)NC(=O)[C@@H](NC(=O)[C@H](Cc1ccccc1)NC(=O)[C@H](CC(=O)O)NC(=O)[C@H](CCCNC(=N)N)NC(=O)[C@H](C)NC(=O)[C@H](C)NC(=O)[C@H](CCC(N)=O)NC(=O)[C@H](CCC(=O)O)NC(=O)[C@H](CC(=O)O)NC(=O)[C@H](CC(C)C)NC(=O)[C@@H](NC(=O)[C@@H](NC(=O)[C@H](C)NC(=O)[C@H](CC(C)C)NC(=O)[C@H](CCC(=O)O)NC(=O)[C@H](CO)NC(=O)[C@H](CO)NC(=O)[C@H](Cc1ccccc1)NC(=O)[C@@H](NC(=O)CNC(=O)[C@H](CCC(=O)O)NC(=O)C(C)(C)NC(=O)[C@@H](N)Cc1c[nH]cn1)[C@@H](C)O)[C@@H](C)O)[C@@H](C)CC)[C@@H](C)CC)C(=O)N[C@@H](C)C(=O)N[C@@H](Cc1c[nH]cn1)C(=O)N[C@@H](CCCCN)C(=O)N[C@H](C(=O)N[C@H](C(=O)N[C@@H](CC(=O)O)C(=O)N[C@H](CCCCN)C(=O)N[C@H](CCCCN)C(=O)N[C@H](CCCCN)C(=O)N[C@H](CCCCN)C(=O)N[C@H](CCCCN)C(=O)N[C@H](CCCCNC(=O)CC[C@H](NC(=O)CCCCCCCCCCCCCCCCC(=O)O)C(=O)O)C(N)=O)[C@@H](C)O)[C@@H](C)CC` [Compound 38] (HELM PEPTIDE1{H.[Aib].E.G.T.F.S.S.E.L.A.T.I.L.D.E.Q.A.A.R.D.F.I.A.W.L.I.A.H.K.I.T.D.[dK].[dK].[dK].[dK].[dK].[dK].[am]}|PEPTIDE2{[O=C(O)CCCCCCCCCCCCCCCCC(=O)[*:2]].[gGlu]}$PEPTIDE1,PEPTIDE2,39:R3-2:R2$$$V2.0): 0.25 nM.
Next, `CC[C@H](C)[C@H](NC(=O)[C@H](Cc1ccccc1)NC(=O)[C@H](CC(=O)O)NC(=O)[C@H](CCCNC(=N)N)NC(=O)[C@H](C)NC(=O)[C@H](C)NC(=O)[C@H](CCC(N)=O)NC(=O)[C@H](CCCCNC(=O)COCCOCCNC(=O)[C@H](CCCCN)NC(=O)[C@H](CCC(=O)O)NC(=O)[C@H](CCCCN)NC(=O)CC[C@H](NC(=O)CCCCCCCCCCCCCCCCC(=O)O)C(=O)O)NC(=O)[C@H](CC(=O)O)NC(=O)[C@H](CC(C)C)NC(=O)[C@@H](NC(=O)[C@@H](NC(=O)[C@H](C)NC(=O)[C@H](CC(C)C)NC(=O)[C@H](CCC(=O)O)NC(=O)[C@H](CO)NC(=O)[C@H](CO)NC(=O)[C@H](Cc1ccccc1)NC(=O)[C@@H](NC(=O)CNC(=O)[C@H](CCC(=O)O)NC(=O)C(C)(C)NC(=O)[C@@H](N)Cc1c[nH]cn1)[C@@H](C)O)[C@@H](C)O)[C@@H](C)CC)C(=O)N[C@@H](C)C(=O)N[C@@H](Cc1c[nH]c2ccccc12)C(=O)N[C@@H](CC(C)C)C(=O)N[C@H](C(=O)N[C@@H](CCC(=O)O)C(=O)N[C@@H](Cc1c[nH]cn1)C(=O)N[C@@H](CCCCN)C(=O)N[C@H](C(=O)N[C@H](C(=O)N[C@@H](CC(=O)O)C(=O)O)[C@@H](C)O)[C@@H](C)CC)[C@@H](C)CC` [Compound 49] (HELM PEPTIDE1{H.[Aib].E.G.T.F.S.S.E.L.A.T.I.L.D.K.Q.A.A.R.D.F.I.A.W.L.I.E.H.K.I.T.D}|PEPTIDE2{[O=C(O)CCCCCCCCCCCCCCCCC(=O)[*:2]].[gGlu].K.E.K.[O=C(COCCOCCN[*:1])[*:2]]}$PEPTIDE1,PEPTIDE2,16:R3-6:R2$$$V2.0): 0.27 nM.
`CC[C@H](C)[C@H](NC(=O)[C@H](Cc1ccccc1)NC(=O)[C@H](CC(=O)O)NC(=O)[C@H](CCCNC(=N)N)NC(=O)[C@H](C)NC(=O)[C@H](C)NC(=O)[C@H](CCC(N)=O)NC(=O)[C@H](CCCCNC(=O)COCCOCCNC(=O)[C@H](CCCCN)NC(=O)[C@H](CCC(=O)O)NC(=O)[C@H](CCCCN)NC(=O)CC[C@H](NC(=O)CCCCCCCCCCCCCCCCCCC(=O)O)C(=O)O)NC(=O)[C@H](CC(=O)O)NC(=O)[C@H](CC(C)C)NC(=O)[C@@H](NC(=O)[C@@H](NC(=O)[C@H](C)NC(=O)[C@H](CC(C)C)NC(=O)[C@H](CCC(=O)O)NC(=O)[C@H](CO)NC(=O)[C@@H](NC(=O)[C@H](Cc1ccccc1)NC(=O)[C@@H](NC(=O)CNC(=O)[C@H](CCC(=O)O)NC(=O)C(C)(C)NC(=O)[C@@H](N)Cc1c[nH]cn1)[C@@H](C)O)[C@@H](C)O)[C@@H](C)O)[C@@H](C)CC)C(=O)N[C@@H](C)C(=O)N[C@@H](Cc1c[nH]c2ccccc12)C(=O)N[C@@H](CC(C)C)C(=O)N[C@H](C(=O)N[C@@H](CCC(N)=O)C(=O)N[C@@H](Cc1c[nH]cn1)C(=O)N[C@@H](CCCCN)C(=O)N[C@H](C(=O)N[C@H](C(=O)N[C@@H](CC(=O)O)C(=O)O)[C@@H](C)O)[C@@H](C)CC)[C@@H](C)CC` [Compound 52] (HELM PEPTIDE1{H.[Aib].E.G.T.F.T.S.E.L.A.T.I.L.D.K.Q.A.A.R.D.F.I.A.W.L.I.Q.H.K.I.T.D}|PEPTIDE2{[O=C(O)CCCCCCCCCCCCCCCCCCC(=O)[*:2]].[gGlu].K.E.K.[O=C(COCCOCCN[*:1])[*:2]]}$PEPTIDE1,PEPTIDE2,16:R3-6:R2$$$V2.0) displayed a 50% effective concentration (EC50) of 0.02 nM.

In general, EC50 refers to the concentration at which the effect is half-maximal. High values mean weaker potency, low ones greater potency.
